Source: ChEMBL document CHEMBL1201862, “PubChem BioAssay data set” (2004)
Active and inactive are the calls of the source.

Columns and labels:
[1] = system: Streptococcus sp. 'group A'; test: growth inhibition of control SK(-) GAS strain, dose response, counter-screen for streptokinase expression inhibitor project, luminescence, kanamycin, BacTiterGlo, confirmation (AID 1900); type: functional, organism-based
INS1 = test: beta cell apoptosis inhibitors, cytokine rescue, dose response, luminescence, retest (AID 449756); type: functional, cell-based; conditions: Rattus norvegicus;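 also: cell death triggered by IL-1 beta plus TNF-alpha plus IFN-gamma mixture; protective hits raise ATP signal compared with cytokine alone wells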
[2] = target: T1, Mannose-6-phosphate isomerase (Homo sapiens, UniProt P34949); test: human PMI inhibitors, high substrate, primary screen, biochemical, fluorescence intensity, high mannose 6-phosphate (AID 1220)
T1 sequence (P34949 whole entry): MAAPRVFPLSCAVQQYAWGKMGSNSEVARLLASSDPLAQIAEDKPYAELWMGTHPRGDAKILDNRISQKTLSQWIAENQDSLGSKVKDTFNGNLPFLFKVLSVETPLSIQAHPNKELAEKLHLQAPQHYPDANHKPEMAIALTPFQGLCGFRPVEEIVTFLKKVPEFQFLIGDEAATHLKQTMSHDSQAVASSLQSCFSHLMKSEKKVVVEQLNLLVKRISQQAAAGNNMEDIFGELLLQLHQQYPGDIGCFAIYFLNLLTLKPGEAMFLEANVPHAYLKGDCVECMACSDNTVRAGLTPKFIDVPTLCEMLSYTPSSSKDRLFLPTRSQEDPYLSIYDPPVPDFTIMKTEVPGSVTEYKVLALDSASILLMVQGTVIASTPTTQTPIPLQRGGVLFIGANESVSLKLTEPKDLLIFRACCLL

[3] = NIH-3T3 fibroblast cytotoxicity, dose response, cytotoxicity control, cell-based, fluorescence, Alamar Blue, secondary assay (AID 2327); type: functional;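 also: NIH-3T3 mouse fibroblasts cultured with fluconazole at 8 µg/mL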
[4] = target: Induced myeloid leukemia cell differentiation protein Mcl-1 (Homo sapiens, UniProt Q07820); type: functional
Chain of Induced myeloid leukemia cell differentiation protein Mcl-1 (Q07820 whole entry): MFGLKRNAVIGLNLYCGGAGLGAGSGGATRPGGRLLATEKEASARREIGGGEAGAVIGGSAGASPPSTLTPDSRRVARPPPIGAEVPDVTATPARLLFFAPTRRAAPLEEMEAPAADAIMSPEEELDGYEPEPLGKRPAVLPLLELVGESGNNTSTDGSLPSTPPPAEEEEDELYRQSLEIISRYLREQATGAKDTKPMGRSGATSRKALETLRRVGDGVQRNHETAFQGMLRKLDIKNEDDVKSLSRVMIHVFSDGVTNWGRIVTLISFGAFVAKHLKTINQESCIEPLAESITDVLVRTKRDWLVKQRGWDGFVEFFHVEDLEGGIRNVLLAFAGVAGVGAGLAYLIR

Bcl-2-related protein A1 = target: T2, Bcl-2-related protein A1 (Mus musculus, UniProt Q07440); type: functional;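 also: confirmatory dose–response counterscreen on Bfl-1, used to check hits from a UBC13 polyubiquitin inhibitor campaign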
T2 sequence (Q07440 whole entry): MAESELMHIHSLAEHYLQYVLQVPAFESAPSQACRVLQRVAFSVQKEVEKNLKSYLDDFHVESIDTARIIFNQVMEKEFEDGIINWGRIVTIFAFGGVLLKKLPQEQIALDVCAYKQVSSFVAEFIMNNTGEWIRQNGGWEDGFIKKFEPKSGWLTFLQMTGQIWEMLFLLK

[5] = Luminescence Cell-Based Dose Response HTS to Identify Inhibitors of 5'UTR Stem-Loop Driven Prion Protein mRNA Translation in H4 Neuroglioblastoma Cells. [Related pubchem assays: 1827 (Project Summary), 1813 (Primary HTS)]; type: functional
Cryptococcus neoformans = test: Cryptococcus growth inhibition by alamar blue – cell lysis, cherry-picks, replicate tests, mechanism study for C. neoformans antifungal project, dose response (AID 686999); type: functional, organism-based
Protein skinhead-1 = target: T3, Protein skinhead-1 (Caenorhabditis elegans, UniProt P34707); type: functional
T3 sequence (P34707 whole entry): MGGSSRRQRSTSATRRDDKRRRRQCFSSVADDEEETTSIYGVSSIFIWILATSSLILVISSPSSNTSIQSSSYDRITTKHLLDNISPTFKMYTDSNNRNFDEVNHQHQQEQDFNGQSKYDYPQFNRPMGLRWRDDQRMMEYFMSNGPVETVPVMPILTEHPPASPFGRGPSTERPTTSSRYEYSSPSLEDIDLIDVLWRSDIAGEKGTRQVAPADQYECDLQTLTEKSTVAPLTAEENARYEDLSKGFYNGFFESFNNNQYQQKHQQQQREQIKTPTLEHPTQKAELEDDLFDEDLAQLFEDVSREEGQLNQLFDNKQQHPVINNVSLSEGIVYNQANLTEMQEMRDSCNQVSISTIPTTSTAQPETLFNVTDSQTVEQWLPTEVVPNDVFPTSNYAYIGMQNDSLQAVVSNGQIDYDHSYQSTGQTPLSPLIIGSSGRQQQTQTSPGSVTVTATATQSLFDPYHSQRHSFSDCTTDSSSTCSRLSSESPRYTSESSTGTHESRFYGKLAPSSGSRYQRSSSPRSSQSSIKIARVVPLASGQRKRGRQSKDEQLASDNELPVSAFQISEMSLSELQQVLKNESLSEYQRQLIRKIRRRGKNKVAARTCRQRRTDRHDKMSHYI

Beta-galactosidase = Beta-galactosidase (Escherichia coli, UniProt Q8VNN2); test: PubChem AID 485352; type: functional
Chain of Beta-galactosidase (Q8VNN2 whole entry): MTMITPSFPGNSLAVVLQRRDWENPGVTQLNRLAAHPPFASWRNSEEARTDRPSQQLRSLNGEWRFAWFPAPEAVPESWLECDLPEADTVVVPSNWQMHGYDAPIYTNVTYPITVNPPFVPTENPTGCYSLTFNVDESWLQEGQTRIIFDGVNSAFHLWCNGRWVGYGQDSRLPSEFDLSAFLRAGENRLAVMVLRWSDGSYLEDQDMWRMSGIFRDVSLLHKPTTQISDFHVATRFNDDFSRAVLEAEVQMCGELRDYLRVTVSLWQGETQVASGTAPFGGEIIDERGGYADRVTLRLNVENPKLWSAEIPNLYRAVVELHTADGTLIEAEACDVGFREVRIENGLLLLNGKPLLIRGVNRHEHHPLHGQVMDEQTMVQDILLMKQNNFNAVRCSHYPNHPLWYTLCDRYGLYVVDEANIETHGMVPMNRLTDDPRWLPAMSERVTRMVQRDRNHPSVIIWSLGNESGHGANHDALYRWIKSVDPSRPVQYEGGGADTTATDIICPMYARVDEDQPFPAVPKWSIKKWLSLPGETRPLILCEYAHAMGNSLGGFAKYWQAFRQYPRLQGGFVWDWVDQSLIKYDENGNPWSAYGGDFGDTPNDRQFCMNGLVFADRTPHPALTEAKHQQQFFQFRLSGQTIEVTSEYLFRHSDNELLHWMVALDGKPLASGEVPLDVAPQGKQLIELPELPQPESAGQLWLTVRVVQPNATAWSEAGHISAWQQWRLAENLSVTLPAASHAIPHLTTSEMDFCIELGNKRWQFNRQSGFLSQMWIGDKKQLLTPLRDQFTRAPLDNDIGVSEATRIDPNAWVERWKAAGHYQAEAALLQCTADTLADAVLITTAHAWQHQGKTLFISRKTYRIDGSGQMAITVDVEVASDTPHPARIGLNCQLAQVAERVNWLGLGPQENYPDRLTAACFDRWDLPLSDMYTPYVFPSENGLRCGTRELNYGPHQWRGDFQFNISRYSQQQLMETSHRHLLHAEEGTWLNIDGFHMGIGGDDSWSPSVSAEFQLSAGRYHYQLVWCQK

[6] = target: T4, Sentrin-specific protease 6 (Homo sapiens, UniProt Q9GZR1); type: functional;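 also: Luminescence-based dose-response confirmatory assay of SENP6 inhibition, following up an ultra-high-throughput screen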
T4 sequence (Q9GZR1 whole entry): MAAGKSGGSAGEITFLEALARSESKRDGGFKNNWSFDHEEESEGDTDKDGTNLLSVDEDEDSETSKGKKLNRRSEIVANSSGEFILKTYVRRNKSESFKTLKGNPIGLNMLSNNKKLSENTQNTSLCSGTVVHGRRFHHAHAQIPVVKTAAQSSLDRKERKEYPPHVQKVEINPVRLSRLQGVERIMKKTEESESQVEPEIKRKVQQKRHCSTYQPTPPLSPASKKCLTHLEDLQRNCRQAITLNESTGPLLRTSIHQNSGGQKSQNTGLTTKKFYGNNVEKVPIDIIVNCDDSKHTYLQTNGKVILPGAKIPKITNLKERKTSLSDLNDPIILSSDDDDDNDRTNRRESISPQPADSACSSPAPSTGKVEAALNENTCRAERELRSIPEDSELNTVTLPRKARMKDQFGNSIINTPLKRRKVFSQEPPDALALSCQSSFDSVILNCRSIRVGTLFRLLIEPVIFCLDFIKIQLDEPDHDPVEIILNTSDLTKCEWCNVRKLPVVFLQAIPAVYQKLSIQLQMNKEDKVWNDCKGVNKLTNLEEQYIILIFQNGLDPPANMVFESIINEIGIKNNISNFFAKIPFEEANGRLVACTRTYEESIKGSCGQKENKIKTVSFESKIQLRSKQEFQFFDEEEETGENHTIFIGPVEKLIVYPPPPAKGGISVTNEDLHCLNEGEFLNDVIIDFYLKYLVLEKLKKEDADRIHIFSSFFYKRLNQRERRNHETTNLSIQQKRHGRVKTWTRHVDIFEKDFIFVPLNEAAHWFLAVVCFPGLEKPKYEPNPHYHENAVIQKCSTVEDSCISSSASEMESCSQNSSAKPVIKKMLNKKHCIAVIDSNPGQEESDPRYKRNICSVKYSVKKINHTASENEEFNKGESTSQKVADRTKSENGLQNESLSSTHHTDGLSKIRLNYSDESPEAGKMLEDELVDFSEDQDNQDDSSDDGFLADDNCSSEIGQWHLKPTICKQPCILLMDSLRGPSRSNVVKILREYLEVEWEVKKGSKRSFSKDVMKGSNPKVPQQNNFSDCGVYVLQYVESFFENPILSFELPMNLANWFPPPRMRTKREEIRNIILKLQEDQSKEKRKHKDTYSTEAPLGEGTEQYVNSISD

[7] = target: Peroxisome proliferator-activated receptor gamma/Nuclear receptor corepressor 2 (Homo sapiens, UniProt P37231+Q9Y618); type: functional
Chain of Peroxisome proliferator-activated receptor gamma/Nuclear receptor corepressor 2 (P37231 whole entry): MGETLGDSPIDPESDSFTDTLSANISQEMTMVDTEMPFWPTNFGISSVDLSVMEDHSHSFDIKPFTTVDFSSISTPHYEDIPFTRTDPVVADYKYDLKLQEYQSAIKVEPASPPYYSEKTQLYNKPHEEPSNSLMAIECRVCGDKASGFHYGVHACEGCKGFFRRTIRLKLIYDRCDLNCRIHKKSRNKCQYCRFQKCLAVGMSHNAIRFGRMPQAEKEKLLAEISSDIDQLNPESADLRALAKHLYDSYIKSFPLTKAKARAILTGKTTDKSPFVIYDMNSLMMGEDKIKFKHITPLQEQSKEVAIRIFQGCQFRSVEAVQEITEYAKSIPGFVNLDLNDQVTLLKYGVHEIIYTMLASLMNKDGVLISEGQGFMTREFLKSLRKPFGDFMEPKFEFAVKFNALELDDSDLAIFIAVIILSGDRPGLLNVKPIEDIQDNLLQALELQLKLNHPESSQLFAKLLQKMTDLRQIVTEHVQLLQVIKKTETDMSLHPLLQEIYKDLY
Chain of Peroxisome proliferator-activated receptor gamma/Nuclear receptor corepressor 2 (Q9Y618 whole entry): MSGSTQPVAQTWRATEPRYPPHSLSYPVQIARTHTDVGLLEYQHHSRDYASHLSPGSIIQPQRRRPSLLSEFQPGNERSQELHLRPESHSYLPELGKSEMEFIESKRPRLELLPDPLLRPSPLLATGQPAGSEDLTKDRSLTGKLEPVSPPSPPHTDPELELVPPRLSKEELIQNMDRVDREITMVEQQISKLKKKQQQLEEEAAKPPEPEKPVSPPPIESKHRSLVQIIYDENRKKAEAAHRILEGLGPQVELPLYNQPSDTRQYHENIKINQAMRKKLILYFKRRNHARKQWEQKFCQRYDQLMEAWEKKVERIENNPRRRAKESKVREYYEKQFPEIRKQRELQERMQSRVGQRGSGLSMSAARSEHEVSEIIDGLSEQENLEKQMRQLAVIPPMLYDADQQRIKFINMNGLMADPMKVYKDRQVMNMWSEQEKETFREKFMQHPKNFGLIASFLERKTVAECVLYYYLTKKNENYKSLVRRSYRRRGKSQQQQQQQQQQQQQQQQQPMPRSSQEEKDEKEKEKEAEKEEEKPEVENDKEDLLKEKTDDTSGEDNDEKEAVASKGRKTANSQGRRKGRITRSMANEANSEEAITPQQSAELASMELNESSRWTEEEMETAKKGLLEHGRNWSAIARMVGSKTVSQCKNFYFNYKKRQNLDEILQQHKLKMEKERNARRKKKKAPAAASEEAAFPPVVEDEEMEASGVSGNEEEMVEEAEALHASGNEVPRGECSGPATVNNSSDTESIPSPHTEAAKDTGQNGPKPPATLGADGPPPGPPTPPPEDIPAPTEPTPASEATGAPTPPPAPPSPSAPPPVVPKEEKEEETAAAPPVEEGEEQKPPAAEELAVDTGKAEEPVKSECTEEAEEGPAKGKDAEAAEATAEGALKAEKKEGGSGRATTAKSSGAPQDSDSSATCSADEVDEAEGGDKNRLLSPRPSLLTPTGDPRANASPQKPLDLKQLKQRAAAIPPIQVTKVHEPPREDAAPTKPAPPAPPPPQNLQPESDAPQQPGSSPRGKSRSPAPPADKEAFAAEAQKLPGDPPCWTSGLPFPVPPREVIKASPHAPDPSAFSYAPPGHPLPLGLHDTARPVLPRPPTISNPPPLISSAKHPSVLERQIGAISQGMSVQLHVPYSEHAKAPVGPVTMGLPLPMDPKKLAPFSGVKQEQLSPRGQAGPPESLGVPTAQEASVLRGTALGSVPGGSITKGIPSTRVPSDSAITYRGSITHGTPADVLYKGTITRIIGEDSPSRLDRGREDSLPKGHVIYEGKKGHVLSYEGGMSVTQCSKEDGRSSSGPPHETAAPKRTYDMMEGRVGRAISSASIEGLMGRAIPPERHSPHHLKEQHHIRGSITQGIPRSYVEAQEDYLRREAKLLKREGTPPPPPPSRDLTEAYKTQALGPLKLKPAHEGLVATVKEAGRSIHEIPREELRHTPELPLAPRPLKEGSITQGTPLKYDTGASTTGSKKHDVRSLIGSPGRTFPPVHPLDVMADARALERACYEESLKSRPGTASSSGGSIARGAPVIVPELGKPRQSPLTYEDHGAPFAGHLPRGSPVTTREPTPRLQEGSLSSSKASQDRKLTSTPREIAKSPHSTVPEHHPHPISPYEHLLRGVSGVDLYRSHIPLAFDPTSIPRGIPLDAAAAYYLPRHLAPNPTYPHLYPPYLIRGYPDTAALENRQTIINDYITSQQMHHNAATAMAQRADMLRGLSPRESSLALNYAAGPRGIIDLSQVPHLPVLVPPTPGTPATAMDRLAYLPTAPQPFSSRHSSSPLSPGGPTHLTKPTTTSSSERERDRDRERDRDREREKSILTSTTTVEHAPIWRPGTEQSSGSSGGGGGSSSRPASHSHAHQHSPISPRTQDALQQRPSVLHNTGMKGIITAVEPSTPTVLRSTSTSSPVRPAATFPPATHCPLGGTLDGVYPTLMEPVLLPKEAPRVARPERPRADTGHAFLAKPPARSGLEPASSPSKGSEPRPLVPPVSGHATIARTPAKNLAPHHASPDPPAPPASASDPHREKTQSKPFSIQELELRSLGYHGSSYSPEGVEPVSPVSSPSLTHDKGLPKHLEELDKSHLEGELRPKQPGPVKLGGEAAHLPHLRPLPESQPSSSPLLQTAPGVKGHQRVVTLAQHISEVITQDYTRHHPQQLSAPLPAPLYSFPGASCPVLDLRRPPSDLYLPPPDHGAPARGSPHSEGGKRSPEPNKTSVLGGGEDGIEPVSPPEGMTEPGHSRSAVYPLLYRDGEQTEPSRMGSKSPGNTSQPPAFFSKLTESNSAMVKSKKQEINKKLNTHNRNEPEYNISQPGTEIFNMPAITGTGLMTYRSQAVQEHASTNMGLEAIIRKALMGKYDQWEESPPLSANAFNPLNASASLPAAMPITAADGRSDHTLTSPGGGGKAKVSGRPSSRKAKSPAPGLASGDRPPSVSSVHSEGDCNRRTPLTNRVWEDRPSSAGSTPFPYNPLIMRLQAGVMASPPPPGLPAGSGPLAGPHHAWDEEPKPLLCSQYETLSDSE

For CCCCCCCCCCOC(=O)Cn1c(COc2ccccc2)[n+](C)c2ccccc21, the EC50 [1] was 6.91 µM (active) and the AC50 (INS1) was 3.72 µM (active).

In the case of COc1cc(-c2nnc(SCc3cc(=O)oc4cc(O)c(O)cc34)o2)cc(OC)c1OC, the IC50 [2] is reported as > 50 µM (not active), the EC50 [3] is reported as > 150 µM (inactive) and the IC50 [4] is reported as 3.77 µM (active).

With CCOC(=O)c1c(-c2ccc(-c3ccccc3)cc2)csc1NC(=O)CNCCN(C)C the IC50 (Bcl-2-related protein A1) was > 20 µM (inactive), the EC50 [5] was 13.7 µM (active) and the AC50 (Cryptococcus neoformans) was 14.7 µM (active). The IC50 (Protein skinhead-1) was 12.5 µM (active) and the EC50 (Beta-galactosidase) was > 40 µM (inactive).

For N#Cc1c(NC(=O)c2ccc(Br)o2)n(-c2ccccc2)c2nc3ccccc3nc12, the IC50 [6] was 2.03 µM (active) and the IC50 [7] was 5.08 µM (active).
